Test system: peach aphid (Myzus persicae)
Test: Insecticidal test against peach aphid, infested Chinese cabbage leaves sprayed
Format: in vivo
Conditions: peach aphid (Myzus persicae) on Chinese cabbage leaves, sprayed with 500 ppm composition unless otherwise stated, mortality assessed after 3 days
Method: This Example illustrates the insecticidal properties of the compounds of Formula I. The activity of the compounds of Formula I was determined using a variety of pests. The pests were treated with a liquid composition containing 500 parts per million (ppm) by weight of the compound unless otherwise stated. The compositions were made by dissolving the compound in acetone and ethanol (50:50) mixture and diluting the solutions with water containing 0.05% by weight of a wetting agent sold under the trade name “SYNPERONIC” NP8 until the liquid composition contained the required concentration of the compound. “SYNPERONIC” is a Registered Trade Mark.
The test procedure adopted with regard to each pest was basically the same and comprised supporting a number of the pests on a medium which was usually a substrate, a host plant or a foodstuff on which the pests feed, and treating either or both the medium and the pests with the compositions. The mortality of the pests was then assessed at periods usually varying from two to five days after the treatment.
In this test Chinese cabbage leaves were infested with aphids, the infested leaves were sprayed with the test composition, and the mortality assessed after 3 days.

SMILES | Score (grading of mortality)
COC(=O)C(C)N1C2CCC1CC(C#N)(c1cncc(Cl)c1)C2 (racemic) [Compound 212] | A (A indicates 80-100% mortality)
COc1ccc(C2(C#N)CC3CCC(C2)N3Cc2ccccc2)cc1 (single isomer, unassigned) [Compound 6] | C (C indicates less than 40% mortality)
COc1ccc(C2(C#N)CC3CCC(C2)N3Cc2ccccc2)cc1 (single isomer, unassigned) [Compound 7] | C (C indicates less than 40% mortality)
N#CC1(c2ccccc2)CC2CCC(C1)N2Cc1ccccc1 (single isomer, unassigned) [Compound 31] | C (C indicates less than 40% mortality)
N#CC1(c2ccccc2)CC2CCC(C1)N2Cc1ccccc1 (single isomer, unassigned) [Compound 32] | A (A indicates 80-100% mortality)
COC(=O)C(C)N1C2CCC1CC(C#N)(c1cncc(Cl)c1)C2 (single isomer, unassigned) [Compound 211] | A (A indicates 80-100% mortality)
COC(=O)C(C)N1C2CCC1CC(C#N)(c1cncc(Cl)c1)C2 (single isomer, unassigned) [Compound 213] | A (A indicates 80-100% mortality)
CN1C2CCC1CC(C#N)(c1cc(Cl)cc(Cl)c1)C2 (centres unmarked) [Compound 1] | A (A indicates 80-100% mortality)
CN1C2CCC1CC(C#N)(c1cc(F)cc(F)c1)C2 (stereo not drawn) [Compound 2, exo-3-(3,5-difluorophenyl)-endo-3-cyano-8-methyl-8-azabicyclo[3.2.1]octane] | A (A indicates 80-100% mortality)
CN1C2CCC1CC(C#N)(c1cccc(F)c1F)C2 (centres unmarked) [Compound 3] | A (A indicates 80-100% mortality)
CN1C2CCC1CC(C#N)(c1c(F)c(F)c(F)c(F)c1F)C2 (centres unmarked) [Compound 4] | A (A indicates 80-100% mortality)
CN1C2CCC1CC(C#N)(c1cccc(Cl)c1Cl)C2 (centres unmarked) [Compound 5] | A (A indicates 80-100% mortality)
N#CC1(c2ccccc2)CC2CCC(C1)N2Cc1ccccc1 (centres unmarked) [Compound 8, 3-phenyl-3-cyano-8-benzyl-8-azabicyclo[3.2.1]octane] | A (A indicates 80-100% mortality)
N#CC1(c2cc(F)cc(F)c2)CC2CCC(C1)N2 (centres unmarked) [Compound 9] | A (A indicates 80-100% mortality)
N#CC1(c2cc(F)cc(F)c2)CC2CCC(C1)N2Cc1ccccc1 (centres unmarked) [Compound 10] | A (A indicates 80-100% mortality)
N#CC1(c2cc(F)cc(F)c2)CC2CCC(C1)N2Cc1cnc(Cl)c(Cl)c1 (centres unmarked) [Compound 11] | A (A indicates 80-100% mortality)
N#CC1(c2cc(F)cc(F)c2)CC2CCC(C1)N2Cc1ccccn1 (centres unmarked) [Compound 12] | A (A indicates 80-100% mortality)
Cc1cccc(CN2C3CCC2CC(C#N)(c2cc(F)cc(F)c2)C3)c1 (centres unmarked) [Compound 13] | B (B indicates 40-79% mortality)
N#CC1(c2cc(F)cc(F)c2)CC2CCC(C1)N2Cc1ccc(Cl)cc1 (centres unmarked) [Compound 14] | A (A indicates 80-100% mortality)
N#CC1(c2cc(F)cc(F)c2)CC2CCC(C1)N2Cc1cccnc1 (centres unmarked) [Compound 15] | A (A indicates 80-100% mortality)
N#CC1(c2cc(F)cc(F)c2)CC2CCC(C1)N2Cc1cc(Cl)cc(Cl)c1 (centres unmarked) [Compound 17] | C (C indicates less than 40% mortality)
N#CC1(c2cc(F)cc(F)c2)CC2CCC(C1)N2CC=C(F)F (centres unmarked) [Compound 18] | A (A indicates 80-100% mortality)

SMILES | Score (grading of mortality)
N#CC1(c2cc(F)cc(F)c2)CC2CCC(C1)N2CC(O)c1ccccc1 (centres unmarked) [Compound 19] | C (C indicates less than 40% mortality)
N#CC1(c2cc(F)cc(F)c2)CC2CCC(C1)N2C(CO)c1ccccc1 (centres unmarked) [Compound 20] | C (C indicates less than 40% mortality)
C=CCN1C2CCC1CC(C#N)(c1cc(F)cc(F)c1)C2 (centres unmarked) [Compound 21] | A (A indicates 80-100% mortality)
C#CCN1C2CCC1CC(C#N)(c1cc(F)cc(F)c1)C2 (centres unmarked) [Compound 22] | A (A indicates 80-100% mortality)
N#CC1(c2cc(F)cc(F)c2)CC2CCC(C1)N2CCF (centres unmarked) [Compound 23] | A (A indicates 80-100% mortality)
N#CC1(c2cc(F)cc(F)c2)CC2CCC(C1)N2CCO (centres unmarked) [Compound 24] | A (A indicates 80-100% mortality)
COCCN1C2CCC1CC(C#N)(c1cc(F)cc(F)c1)C2 (centres unmarked) [Compound 25] | A (A indicates 80-100% mortality)
N#CCCN1C2CCC1CC(C#N)(c1cc(F)cc(F)c1)C2 (centres unmarked) [Compound 26] | B (B indicates 40-79% mortality)
N#CC1(c2cc(F)cc(F)c2)CC2CCC(C1)N2Cc1ccc(Cl)s1 (centres unmarked) [Compound 27] | A (A indicates 80-100% mortality)
N#CC1(c2cc(F)cc(F)c2)CC2CCC(C1)N2c1cccc(Cl)n1 (centres unmarked) [Compound 28] | C (C indicates less than 40% mortality)
Cc1ncc(CN2C3CCC2CC(C#N)(c2cc(F)cc(F)c2)C3)s1 (centres unmarked) [Compound 29] | B (B indicates 40-79% mortality)
COC(=N)CN1C2CCC1CC(C#N)(c1cc(F)cc(F)c1)C2 (centres unmarked) [Compound 30] | A (A indicates 80-100% mortality)
CN1C2CCC1CC(C#N)(c1cccnc1)C2 (stereo not drawn) [Compound 33, exo-3-(pyrid-3-yl)-endo-3-cyano-8-methyl-8-azabicyclo[3.2.1]octane] | A (A indicates 80-100% mortality)
N#C[C@@]1(c2cccnc2)C[C@H]2CC[C@@H](C1)N2CCF [Compound 34, exo-3-(pyrid-3-yl)-endo-3-cyano-8-(2-fluoroethyl)-8-azabicyclo[3.2.1]octane] | A (A indicates 80-100% mortality)
C=CCN1C2CCC1CC(C#N)(c1cccnc1)C2 (centres unmarked) [Compound 35] | A (A indicates 80-100% mortality)
N#CC1(c2cccnc2)CC2CCC(C1)N2 (stereo not drawn) [Compound 36, exo-3-(pyrid-3-yl)-endo-3-cyano-8-azabicyclo[3.2.1]octane] | A (A indicates 80-100% mortality)
N#CC1(c2cccnc2)CC2CCC(C1)N2Cc1ccccc1 (stereo not drawn) [Compound 37, exo-3-(pyrid-3-yl)-endo-3-cyano-8-benzyl-8-azabicyclo[3.2.1]octane] | A (A indicates 80-100% mortality)
CCN1C2CCC1CC(C#N)(c1cccnc1)C2 (centres unmarked) [Compound 38] | A (A indicates 80-100% mortality)
CC(C)(C)OC(=O)CN1C2CCC1CC(C#N)(c1cccnc1)C2 (centres unmarked) [Compound 39] | C (C indicates less than 40% mortality)
C[n+]1cccc(C2(C#N)CC3CCC(C2)N3C(=O)OC(C)(C)C)c1.[I-] (centres unmarked) [Compound 40] | A (A indicates 80-100% mortality)
CN1C2CCC1CC(C#N)(c1ccc(Cl)nn1)C2 (stereo not drawn) [Compound 41, exo-3-(6-chloropyridazin-3-yl)-endo-3-cyano-8-methyl-8-azabicyclo[3.2.1]octane] | A (A indicates 80-100% mortality)
CCCN1C2CCC1CC(C#N)(c1cccnc1)C2 (stereo not drawn) [Compound 42, exo-3-(pyrid-3-yl)-endo-3-cyano-8-(prop-1-yl)-8-azabicyclo[3.2.1]octane] | A (A indicates 80-100% mortality)

Reference: patent US6573275B1, “Bicyclic amines” (Syngenta Limited, priority 1995, dated 2003)
